How the values were obtained:
[1] = tested on: human striated muscle cells innervated with explants of rat embryonic rachidian ganglia and spinal cord; assay: nerve/muscle coculture model, muscle fibre contractions; format: cell-based
Procedure: The compound of Example 1 was tested on a model of nerve/muscle coculture, which makes it possible to recreate a motor arc by innervating human striated muscle cells with explants of rat embryonic rachidian ganglia and spinal cord.
Human muscle cells, obtained from samples of striated muscle from healthy donors, are inoculated into wells of cross section 1.8 cm^2 (24-well culture dishes). After culturing for ten days, these cells form a monolayer and fuse. At this stage, explants of embryonic spinal cord from a 13 day-old rat, containing the rachidian ganglia, are placed on the culture.
The growth of the neurites is visible beyond the spinal cord explant after one day of culture. The first contractions of the muscle fibres are observed after five to six days of coculture, and after three weeks all the muscle fibres in the region of the explants contract.
The cocultures are used after 21 days, when the muscle fibres are striated and contain mature differentiated neuromuscular junctions.
A muscle fibre showing regular contractions (at least 60 contractions per minute) is then selected from three different culture wells and the number of contractions is counted over 30 seconds. The test compound, diluted in DMSO, is then incubated for 60 seconds in these wells, at a concentration of 10^−5 M. At the end of incubation, the number of contractions is again counted over 30 seconds. […]

[2] = anti-wrinkle activity in vivo; conditions: no details given

| SMILES | contractions of the fibre as % of its contractions before addition of the compound ([1]; 10^−5 M, diluted in DMSO, 60 seconds incubation (one minute after adding), contractions counted over 30 seconds, triplicate) | anti-wrinkle activity in vivo [2] | effect on muscle fibre contractions in the nerve/muscle coculture model ([1]; as demonstrated by the Applicant, no concentration given) |
| --- | --- | --- | --- |
| c1ccc(CCCC2CCN(CCCc3ccccc3)CC2)cc1 [Example 1, 1,4-bis(3-phenylpropyl)piperidine] | 55% |  |  |
| CN1C(=O)CN=C(c2ccccc2)c2cc(Cl)ccc21 [diazepam] |  | demonstrated in vivo | inhibited muscle fibre contractions |

From patent US8129409B2, “Piperidine derivatives and cosmetic compositions thereof” (L'Oreal, priority 2004, dated 2012)
